In the assay the target is T1, H+/K+ ATPase (Oryctolagus cuniculus, UniProt P27112).
T1 construct: The stomach tissue of the rabbit was separated; from tissue; host or cells: rabbit stomach fundus mucosa, microsomal/Ficoll membrane fraction
T1 sequence (P27112 whole entry): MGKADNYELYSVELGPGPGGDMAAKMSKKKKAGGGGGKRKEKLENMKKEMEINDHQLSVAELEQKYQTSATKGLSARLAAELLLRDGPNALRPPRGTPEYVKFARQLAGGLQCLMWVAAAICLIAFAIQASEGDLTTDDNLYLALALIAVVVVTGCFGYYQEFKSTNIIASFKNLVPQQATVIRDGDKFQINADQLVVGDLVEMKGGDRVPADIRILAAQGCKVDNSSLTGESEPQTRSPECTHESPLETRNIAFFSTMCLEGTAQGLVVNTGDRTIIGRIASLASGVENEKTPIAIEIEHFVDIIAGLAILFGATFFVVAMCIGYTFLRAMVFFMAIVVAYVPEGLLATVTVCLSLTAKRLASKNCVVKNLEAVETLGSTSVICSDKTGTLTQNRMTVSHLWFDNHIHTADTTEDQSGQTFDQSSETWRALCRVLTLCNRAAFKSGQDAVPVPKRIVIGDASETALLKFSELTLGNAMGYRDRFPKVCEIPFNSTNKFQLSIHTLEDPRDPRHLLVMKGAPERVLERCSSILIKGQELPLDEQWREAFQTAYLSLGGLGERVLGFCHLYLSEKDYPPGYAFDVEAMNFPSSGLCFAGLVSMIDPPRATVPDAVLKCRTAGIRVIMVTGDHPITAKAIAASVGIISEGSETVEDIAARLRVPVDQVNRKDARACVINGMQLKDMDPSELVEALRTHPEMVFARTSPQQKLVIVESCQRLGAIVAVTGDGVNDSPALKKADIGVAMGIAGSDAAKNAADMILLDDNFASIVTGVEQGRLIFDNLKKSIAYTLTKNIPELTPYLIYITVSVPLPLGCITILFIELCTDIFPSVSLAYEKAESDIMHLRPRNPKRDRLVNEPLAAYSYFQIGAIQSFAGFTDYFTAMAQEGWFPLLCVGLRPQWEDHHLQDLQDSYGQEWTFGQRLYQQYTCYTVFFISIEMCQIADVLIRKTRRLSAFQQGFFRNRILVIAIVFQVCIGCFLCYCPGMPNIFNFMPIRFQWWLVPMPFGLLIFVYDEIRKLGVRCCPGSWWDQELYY
T1 sequence (P18597 whole entry partner): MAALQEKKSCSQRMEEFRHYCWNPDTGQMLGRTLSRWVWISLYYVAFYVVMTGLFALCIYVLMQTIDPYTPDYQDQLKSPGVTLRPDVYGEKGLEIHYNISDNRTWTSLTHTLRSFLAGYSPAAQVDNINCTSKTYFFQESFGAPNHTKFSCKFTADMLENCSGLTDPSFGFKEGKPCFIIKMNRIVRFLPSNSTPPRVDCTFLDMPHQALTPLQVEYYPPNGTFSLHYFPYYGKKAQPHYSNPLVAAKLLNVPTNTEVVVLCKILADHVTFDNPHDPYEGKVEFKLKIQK
In words: Determination of compounds' inhibition of H+/K+ ATPase enzyme activity (malachite green, OD 620 nm). Type of assay: biochemical. To be noted: enzyme extracted from rabbit stomach mucosa; pH 6.5; 500 μM ATP; 37° C.; read-out: IC50(μM) inhibition rate (IC50) of H+/K+ ATPase enzyme activity. The source says:
Test Example: Determination of Compounds' Inhibition of H+/K+ ATPase Enzyme Activity
The following experiment is used to determine the inhibitory effect of the compound of the present invention on the H+/K+ ATPase enzyme activity.
• Plate reader: SpectraMax M5(MD) • Malachite Green (Sigma Aldrich, 213020-25G) • Ammonium molybdate (Sigma Aldrich, 277908-20G) • ATP (Sigma Aldrich, A1852-1VL). 2. Buffer Preparation • Enzyme working solution: titrating the enzyme, diluting the enzyme with buffer solution 1, and taking 5 μl of the diluted solution into 50 μl reaction system • ATP solution: 100 mM ATP was diluted to 5 mM with no K+ buffer, and 5 μl of the diluted solution was added to the 50 μl reaction system, that is, the final concentration of ATP was 500 μM MLG color development liquid: 0.12% MLG, 7.5% ammonium molybdate, 11% Tween-20 was mixed as 100:25:2, and adding 15 μl of the mixture into each well during detection. • Buffer 1: 50 mM Tris-HCl pH 6.5, 5 mM magnesium chloride (magnesium chloride), 10 μM valinomycin (valinomycin) • Buffer 2: 50 mM Tris-HCl pH 6.5, 5 mM magnesium chloride (magnesium chloride), 10 μM valinomycin (valinomycin), 20 mM KCl • Homogenization buffer: 10 mmol/L Tris-HCl, pH 6.8, 0.25 M sucrose (sucrose), 1 mmol/LEDTA 7.5% Ficoll layering solution: homogenization buffer+7.5% (W/W) (Ficoll 400). 3. Experimental Steps […] Enzyme Extraction • (1) The stomach tissue of the rabbit was separated, and the blood was washed with tap water, food residue. • (2) The fundus portion was thoroughly washed with pre-cooled NaCl solution to remove surface mucus. • (3) The stripped mucosa was filled into a sample bag or a 50 ml centrifuge tube, and quickly freezing in a liquid nitrogen tank. • (4) The tissue was removed, minced with surgical scissors, and a pre-cooled homogenization buffer (4 ml/g tissue) was added and homogenized in a tissue homogenizer for 2 to 10 minutes. • (5) After homogenization, if there were larger tissue particles, they could be removed by centrifugation (600 g, 10 min), and then the supernatant was transferred to a clean centrifuge tube. After centrifugation at 20000 g for 30 minutes, then the supernatant was transferred to a clean centrifuge tube at 100000 g for 90 minutes, and the precipitate was collected. • (6) Resuspending the precipitate with homogenization buffer, blowing uniformly, adding 7.5% Ficoll layering solution at equal ratio, centrifuging at 100000 g for 90 minutes, and collecting the precipitate. • (7) Resuspending the precipitate with homogenization buffer, blowing uniformly, and the protein concentration was measured by Bradford. Freezing in tubes at −80° C. for later use. 3.2. H+/K+ ATPase Activity Experiment • (1) Adding 35 μl of reaction buffer to each experimental well, and then adding […]. • (2) Adding 5 μl buffer 1 containing 10% DMSO to the whole enzyme and buffer well. • (3) Adding 5 μl of 10× compound working solution to the compound well and mixing well. • (4) Adding 5 μl of buffer 1 to the buffer well. • (5) Adding 5 μl of 10× enzyme working solution to the remaining wells, mixing and incubating at 37° C. for 30 minutes. • (6) Adding 5 μl of 10×ATP working solution to all experimental wells, mixing and incubating at 37° C. for 20 min. • (7) Adding 15 μl MLG chromogenic solution to all experimental wells, and uniformly mixing and incubating at room temperature for 5-30 min. • (8) The reading number of 620 nm was detected by an M5 instrument. 4. Data Analysis
The inhibition rate is calculated with the following formula: Inhibition rate (IC50)=[OD (sample well)−OD (full enzyme well containing potassium chloride)]/[(OD (full enzyme well containing potassium chloride)−(OD (full enzyme well without potassium chloride)]×100% 5. Experimental Results
For `CN1Cc2nn(Cc3ccc(O)c(C4=CCOCC4)c3)c(-c3ccccc3F)c2C1` [Example 1, 2-(3,6-dihydro-2H-pyran-4-yl)-4-((3-(2-fluorophenyl)-5-methyl-5,6-dihydropyrrolo[3,4-c]pyrazole-2(4H)-yl)methyl)phenol], the IC50 was 0.233 µM. In the case of `CN1Cc2nn(Cc3ccc(O)c(C4=CCCOC4)c3)c(-c3ccccc3F)c2C1` [Example 2, 2-(5,6-dihydro-2H-pyran-3-yl)-4-((3-(2-fluorophenyl)-5-methyl-5,6-dihydropyrrolo[3,4-c]pyrazole-2(4H)-yl)methyl)phenol], the IC50 came to 0.0559 µM. As to `CN1Cc2nn(Cc3cccc(C4=CCCOC4)c3)c(-c3ccccc3F)c2C1` [Example 3, 2-(3-(5,6-dihydro-2H-pyran-3-yl)benzyl)-3-(2-fluorophenyl)-5-methyl-2,4,5,6-tetrahydropyrrolo[3,4-C]pyrazole], the IC50 turned out to be 0.197 µM. Take `CN1Cc2nn(Cc3cc(O)cc(C4=CCCOC4)c3)c(-c3ccccc3F)c2C1` [Example 4, 3-(5,6-dihydro-2H-pyran-3-yl)-5-((3-(2-fluorophenyl)-5-methyl-5,6-dihydropyrrolo[3,4-c]pyrazole-2(4H)-yl)methyl)phenol]: the IC50 is 0.113 µM.

For the molecule `CN1Cc2nn(Cc3cccc(C4=CCOCC4)c3)c(-c3ccccc3F)c2C1` [Example 5, 2-(3-(3,6-dihydro-2H-pyran-4-yl)benzyl)-3-(2-fluorophenyl)-5-methyl-2,4,5,6-Tetrahy dropyrrolo[3,4-C]pyrazole], the IC50 amounted to 0.0883 µM. Take `CN1Cc2nn(Cc3cc(Cl)cc(C4=CCOCC4)c3)c(-c3ccccc3F)c2C1` [Example 6, 2-(3-chloro-5-(3,6-dihydro-2H-pyran-4-yl)benzyl)-3-(2-fluorophenyl)-5-methyl-2,4,5,6-tetrahydropyrrolo[3,4-c]pyrazole]: the IC50 came out at 0.121 µM. In the case of `CN1Cc2nn(Cc3ccc(F)c(C4=CCOCC4)c3)c(-c3ccccc3F)c2C1` [Example 7, 2-(3-(3,6-dihydro-2H-pyran-4-yl)-4-fluorobenzyl)-3-(2-fluorophenyl)-5-methyl-2,4,5,6-tetrahydropyrrolo[3,4-c]pyrazole] it was 0.114 µM; in that of `CN1Cc2nn(Cc3cc(O)cc(C4=CCOCC4)c3)c(-c3ccccc3F)c2C1` [Example 8, 3-(3,6-dihydro-2H-pyran-4-yl)-5-((3-(2-fluorophenyl)-5-methyl-5,6-dihydropyrrolo[3,4-c]pyrazole-2(4H)-yl)methyl)phenol], 0.0811 µM; in that of `CN1Cc2nn(Cc3cccc(C4=CCNCC4)c3)c(-c3ccccc3F)c2C1` [Example 9, 3-(2-fluorophenyl)-5-methyl-2-(3-(1,2,3,6-tetrahydropyridin-4-yl)benzyl)-2,4,5,6-tetrahydropyrrolo[3,4-C]pyrazole], 0.208 µM. For the molecule `CN1Cc2nn(Cc3cccc(C4=CCOCC4)c3)c(-c3cccnc3F)c2C1` [Example 10, 2-(3-(3,6-dihydro-2H-pyran-4-yl)benzyl)-3-(2-fluoropyridin-3-yl)-5-methyl-2,4,5,6-tetrahydropyrrolo[3,4-c]pyrazole], the IC50 was 0.769 µM.

The values above are taken from US12404276B2, “Substituted pyrrolo[3,4-c]pyrazoles for treating gastric acid-related diseases” (SHANGHAI MEDICILON INC., priority 2019, dated 2025).
